Experimental data taken from patent US10525041B2, “Fluoroalkyl-substituted aryltriazole derivatives and uses thereof” (BAYER PHARMA AKTIENGESELLSCHAFT, priority 2016, dated 2020).

Columns and labels:
[1] = molecular target: T1, human V1a receptor (Homo sapiens, UniProt P37288); assay: Cellular in vitro assay for vasopressin receptor activity, V1a cell line (aequorin luminescence); assay type: cell-based; details: for IC50: CHO cell line transfected with human V1a receptor, agonist [Arg8]-vasopressin at EC50 concentration, read-out: IC50hV1a; for ratio IC50 hV2/hV1a: ratio of the IC50 on human V2 to the IC50 on human V1a
T1 construct: expressed in transfected cells; host or cells: CHO K1 (ATCC), also stably transfected with a modified aequorin
Procedure: (§1) B-1. Cellular In Vitro Assay for Determining Vasopressin Receptor Activity
(§2) The identification of agonists and antagonists of the V1a and V2 vasopressin receptors from humans, rats and dogs as well as the quantification of the activity of the compounds of the invention is carried out using recombinant cell lines. These cell lines originally derive from a hamster's ovary epithelial cell (Chinese Hamster Ovary, CHO K1, ATCC: American Type Culture Collection, Manassas, Va. 20108, USA). The test cell lines constitutively express the human, rat or dog V1a or V2 receptors. In case of the Gαq-coupled V1a receptors, cells are also stably transfected with a modified form of the calcium-sensitive photoproteins aequorin (human and rat V1a) or obelin (dog V1a), which, after reconstitution with the cofactor coelenterazine, emit light when there are increases in free calcium concentrations [Rizzuto R, Simpson A W, Brini M, Pozzan T, Nature 358, 325-327 (1992); Illarionov B A, Bondar V S, Illarionova V A, Vysotski E S, Gene 153 (2), 273-274 (1995)]. The resulting vasopressin receptor cells react to stimulation of the recombinantly expressed V1a receptors by intracellular release of calcium ions, which can be quantified by the resulting photoprotein luminescence. The Gs-coupled V2 receptors are stably transfected into cell lines expressing the gene for firefly luciferase under control of a CRE-responsible promoter. Activation of V2 receptors induces the activation of the CRE-responsive promoter via cAMP increase, thereby inducing the expression of firefly luciferase. The light emitted by photoproteins of V1a cell lines as well as the light emitted by firefly luciferase of V2 cell lines corresponds to the activation or inhibition of the respective vasopressin receptor. The bioluminescence of the cell lines is detected using a suitable luminometer [Milligan G, Marshall F, Rees S, Trends in Pharmacological Sciences 17, 235-237 (1996)].
Vasopressin V1a Receptor Cell Lines:
On the day before the assay, the cells are plated out in culture medium (DMEM/F12, 2% FCS, 2 mM glutamine, 10 mM HEPES, 5 μg/ml coelenterazine) in 384-well microtiter plates and kept in a cell incubator (96% humidity, 5% v/v CO2, 37° C.). On the day of the assay, test compounds in various concentrations are placed for 10 minutes in the wells of the microtiter plate before the agonist [Arg^8]-vasopressin at EC50 concentration is added. The resulting light signal is measured immediately in a luminometer.
(§3) Table 1A below lists individual IC50 values for the compounds of the invention (including racemic mixtures as well as separated enantiomers) that were obtained from cell lines transfected with the human V1a or V2 receptor: […]

[2] = molecular target: T2, human V2 receptor (Homo sapiens, UniProt P30518); assay: Cellular in vitro assay for vasopressin receptor activity, V2 cell line (CRE-luciferase); assay type: cell-based; details: CHO cell line transfected with human V2 receptor; agonist [Arg8]-vasopressin at EC50 concentration, 3 hours; read-out: IC50hV2
T2 construct: expressed in transfected cells; host or cells: CHO K1 (ATCC) line expressing firefly luciferase under a CRE-responsive promoter
Procedure: as §1, §2
Vasopressin V2 Receptor Cell Lines:
On the day before the assay, the cells are plated out in culture medium (DMEM/F12, 2% FCS, 2 mM glutamine, 10 mM HEPES) in 384-well microtiter plates and kept in a cell incubator (96% humidity, 5% v/v CO2, 37° C.). On the day of the assay, test compounds in various concentrations and the agonist [Arg^8]-vasopressin at EC50 concentration are added together to the wells, and plates are incubated for 3 hours in a cell incubator. Upon addition of the cell lysis reagent Triton™ and the substrate luciferin, luminescence of firefly luciferase is measured in a luminometer.
as §3

T1 sequence (P37288 whole entry): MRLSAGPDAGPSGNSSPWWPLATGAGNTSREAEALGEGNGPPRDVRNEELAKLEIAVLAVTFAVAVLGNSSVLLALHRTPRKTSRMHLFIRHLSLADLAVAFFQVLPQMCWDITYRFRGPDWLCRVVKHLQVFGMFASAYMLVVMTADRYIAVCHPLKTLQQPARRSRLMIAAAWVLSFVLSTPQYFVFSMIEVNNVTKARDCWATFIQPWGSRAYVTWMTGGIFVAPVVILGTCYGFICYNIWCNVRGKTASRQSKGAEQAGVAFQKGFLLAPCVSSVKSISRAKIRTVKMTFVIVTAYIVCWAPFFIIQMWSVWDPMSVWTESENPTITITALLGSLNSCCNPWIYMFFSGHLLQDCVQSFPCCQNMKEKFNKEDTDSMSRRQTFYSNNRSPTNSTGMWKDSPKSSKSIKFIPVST
T2 sequence (P30518 whole entry): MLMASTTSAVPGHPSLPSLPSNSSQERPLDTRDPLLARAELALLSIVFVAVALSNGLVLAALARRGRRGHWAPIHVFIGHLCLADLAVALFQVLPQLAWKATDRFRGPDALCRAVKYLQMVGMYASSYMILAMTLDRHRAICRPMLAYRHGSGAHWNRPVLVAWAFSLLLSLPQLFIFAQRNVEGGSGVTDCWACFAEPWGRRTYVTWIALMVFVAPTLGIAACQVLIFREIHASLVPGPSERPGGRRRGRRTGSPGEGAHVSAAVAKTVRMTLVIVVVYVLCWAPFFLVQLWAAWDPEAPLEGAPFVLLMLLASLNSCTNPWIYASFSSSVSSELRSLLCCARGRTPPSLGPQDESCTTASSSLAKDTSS

IC50 [1] | ratio IC50 hV2/hV1a [1] | IC50 [2] | SMILES
0.85 nM | 0.5 | 0.45 nM | CSc1ccccc1-n1nc(Cn2nc(-c3ccc(Cl)cc3)n(C[C@H](O)C(F)(F)F)c2=O)nc1C(C)F (mixture of isomers) [Example 49, 5-(4-Chlorophenyl)-2-({5-[1-fluoroethyl]-1-[2-(methylsulfanyl)phenyl]-1H-1,2,4-triazol-3-yl}methyl)-4-[(2S)-3,3,3-trifluoro-2-hydroxypropyl]-2,4-dihydro-3H-1,2,4-triazol-3-one]
2.1 nM | 3.3 | 6.95 nM | CC(F)(F)c1nc(Cn2nc(-c3ccc(Cl)cc3)n(C[C@H](O)C(F)(F)F)c2=O)nn1-c1ccccc1OC(F)F [Example 63, 5-(4-Chlorophenyl)-2-({5-(1,1-difluoroethyl)-1-[2-(difluoromethoxy)phenyl]-1H-1,2,4-triazol-3-yl}methyl)-4-[(2S)-3,3,3-trifluoro-2-hydroxypropyl]-2,4-dihydro-3H-1,2,4-triazol-3-one]
0.48 nM | 5.0 | 2.37 nM | CC(F)c1nc(Cn2nc(-c3ccc(Cl)cc3)n(C[C@H](O)C(F)(F)F)c2=O)nn1-c1cnccc1Cl (single isomer, unassigned) [Example 6]
3.35 nM | 3.0 | 10 nM | CC(F)c1nc(Cn2nc(-c3ccc(Cl)cc3)n(C[C@H](O)C(F)(F)F)c2=O)nn1-c1ccccc1[N+](=O)[O-] (mixture of isomers) [Example 37, 5-(4-Chlorophenyl)-2-({5-[1-fluoroethyl]-1-(2-nitrophenyl)-1H-1,2,4-triazol-3-yl}methyl)-4-[(2S)-3,3,3-trifluoro-2-hydroxypropyl]-2,4-dihydro-3H-1,2,4-triazol-3-one]
12.5 nM | 0.6 | 7.85 nM | CC(F)c1nc(Cn2nc(-c3ccc(Cl)cc3)n(C[C@H](O)C(F)(F)F)c2=O)nn1-c1cccc(F)c1 (single isomer, unassigned) [Example 15]
3.2 nM | 0.5 | 1.74 nM | Cc1cccc(C)c1-n1nc(Cn2nc(-c3ccc(Cl)cc3)n(C[C@H](O)C(F)(F)F)c2=O)nc1C(C)F (mixture of isomers) [Example 46, 5-(4-Chlorophenyl)-2-({1-(2,6-dimethylphenyl)-5-[1-fluoroethyl]-1H-1,2,4-triazol-3-yl}methyl)-4-[(2S)-3,3,3-trifluoro-2-hydroxypropyl]-2,4-dihydro-3H-1,2,4-triazol-3-one]
2.2 nM | 1.3 | 2.97 nM | CC(F)c1nc(Cn2nc(-c3ccc(Cl)cc3)n(C[C@H](O)C(F)(F)F)c2=O)nn1-c1c(F)cccc1F (mixture of isomers) [Example 45, 5-(4-Chlorophenyl)-2-({1-(2,6-difluorophenyl)-5-[1-fluoroethyl]-1H-1,2,4-triazol-3-yl}methyl)-4-[(2S)-3,3,3-trifluoro-2-hydroxypropyl]-2,4-dihydro-3H-1,2,4-triazol-3-one]
1.55 nM | 8.1 | 12.5 nM | CC(F)c1nc(Cn2nc(-c3ccc(Cl)cc3)n(C[C@H](O)C(F)(F)F)c2=O)nn1-c1ncccc1Cl (single isomer, unassigned) [Example 21]
0.4 nM | 2.9 | 1.16 nM | CC(F)(F)c1nc(Cn2nc(-c3ccc(Cl)cc3)n(C[C@H](O)C(F)(F)F)c2=O)nn1-c1ccccc1Cl [Example 53, 5-(4-Chlorophenyl)-2-{[1-(2-chlorophenyl)-5-(1,1-difluoroethyl)-1H-1,2,4-triazol-3-yl]methyl}-4-[(2S)-3,3,3-trifluoro-2-hydroxypropyl]-2,4-dihydro-3H-1,2,4-triazol-3-one]
5.3 nM | 0.8 | 4.27 nM | Cc1cccc(C)c1-n1nc(Cn2nc(-c3ccc(Cl)cc3)n(C[C@H](O)C(F)(F)F)c2=O)nc1C(C)(F)F [Example 71, 5-(4-Chlorophenyl)-2-{[5-(1,1-difluoroethyl)-1-(2,6-dimethylphenyl)-1H-1,2,4-triazol-3-yl]methyl}-4-[(2S)-3,3,3-trifluoro-2-hydroxypropyl]-2,4-dihydro-3H-1,2,4-triazol-3-one]
60 nM | 0.1 | 3.85 nM | CC(F)c1nc(Cn2nc(-c3ccc(Cl)cc3)n(C[C@H](O)C(F)(F)F)c2=O)nn1-c1cccc(Cl)c1 (single isomer, unassigned) [Example 18]
30 nM | 1.2 | 35 nM | CC(C)c1ccccc1-n1nc(Cn2nc(-c3ccc(Cl)cc3)n(C[C@H](O)C(F)(F)F)c2=O)nc1C(C)F (mixture of isomers) [Example 47, 5-(4-Chlorophenyl)-2-({5-[1-fluoroethyl]-1-[2-(propan-2-yl)phenyl]-1H-1,2,4-triazol-3-yl}methyl)-4-[(2S)-3,3,3-trifluoro-2-hydroxypropyl]-2,4-dihydro-3H-1,2,4-triazol-3-one]
1.35 nM | 4.4 | 5.95 nM | CC(F)c1nc(Cn2nc(-c3ccc(Cl)cc3)n(C[C@H](O)C(F)(F)F)c2=O)nn1-c1ncccc1Cl (single isomer, unassigned) [Example 20]
58 nM | 5.9 | 340 nM | CC(F)(F)c1nc(Cn2nc(-c3ccc(Cl)cc3)n(C[C@H](O)C(F)(F)F)c2=O)nn1-c1ccccc1S(N)(=O)=O [Example 66, 2-[3-({3-(4-Chlorophenyl)-5-oxo-4-[(2S)-3,3,3-trifluoro-2-hydroxypropyl]-4,5-dihydro-1H-1,2,4-triazol-1-yl}methyl)-5-(1,1-difluoroethyl)-1H-1,2,4-triazol-1-yl]benzenesulfonamide]
1 nM | 3.4 | 3.4 nM | CC(F)(F)c1nc(Cn2nc(-c3ccc(Cl)cc3)n(C[C@H](O)C(F)(F)F)c2=O)nn1-c1ncccc1Cl [Example 58, 5-(4-Chlorophenyl)-2-{[1-(3-chloropyridin-2-yl)-5-(1,1-difluoroethyl)-1H-1,2,4-triazol-3-yl]methyl}-4-[(2S)-3,3,3-trifluoro-2-hydroxypropyl]-2,4-dihydro-3H-1,2,4-triazol-3-one]
30.5 nM | 0.2 | 4.9 nM | CCc1cccc(C)c1-n1nc(Cn2nc(-c3ccc(Cl)cc3)n(C[C@H](O)C(F)(F)F)c2=O)nc1C(C)F (mixture of isomers) [Example 48, 5-(4-Chlorophenyl)-2-({1-(2-ethyl-6-methylphenyl)-5-[1-fluoroethyl]-1H-1,2,4-triazol-3-yl}methyl)-4-[(2S)-3,3,3-trifluoro-2-hydroxypropyl]-2,4-dihydro-3H-1,2,4-triazol-3-one]
3.05 nM | 3.7 | 11.4 nM | CC(F)(F)c1nc(Cn2nc(-c3ccc(Cl)cc3)n(C[C@H](O)C(F)(F)F)c2=O)nn1-c1ccccc1[N+](=O)[O-] [Example 65, 5-(4-Chlorophenyl)-2-{[5-(1,1-difluoroethyl)-1-(2-nitrophenyl)-1H-1,2,4-triazol-3-yl]methyl}-4-[(2S)-3,3,3-trifluoro-2-hydroxypropyl]-2,4-dihydro-3H-1,2,4-triazol-3-one]
13.5 nM | 5.5 | 73.8 nM | CC(F)c1nc(Cn2nc(-c3ccc(Cl)cc3)n(C[C@H](O)C(F)(F)F)c2=O)nn1-c1ncccc1C(F)(F)F (single isomer, unassigned) [Example 11]
